14 compounds from ChEMBL document CHEMBL1136804, “Adenosine kinase inhibitors. 3. Synthesis, SAR, and antiinflammatory activity of a series of l-lyxofuranosyl nucleosides” (J Med Chem, 2003) can be followed below.

Each structure is given as a SMILES string.

The target of one assay is Adenosine kinase (Homo sapiens, UniProt P55263). The assay can be described thus: Inhibitory activity against human recombinant adenosine kinase.
The test system of the next assay is Rattus norvegicus. Description: Anti-inflammatory activity at a dose of 10 mg/kg, perorally in rat Carrageenan paw edema model. The conditions noted are these: route oral. The format is functional. On the technique in general: The carrageenan paw model is a standard test of acute inflammation.

Sequence of Adenosine kinase (P55263 whole entry): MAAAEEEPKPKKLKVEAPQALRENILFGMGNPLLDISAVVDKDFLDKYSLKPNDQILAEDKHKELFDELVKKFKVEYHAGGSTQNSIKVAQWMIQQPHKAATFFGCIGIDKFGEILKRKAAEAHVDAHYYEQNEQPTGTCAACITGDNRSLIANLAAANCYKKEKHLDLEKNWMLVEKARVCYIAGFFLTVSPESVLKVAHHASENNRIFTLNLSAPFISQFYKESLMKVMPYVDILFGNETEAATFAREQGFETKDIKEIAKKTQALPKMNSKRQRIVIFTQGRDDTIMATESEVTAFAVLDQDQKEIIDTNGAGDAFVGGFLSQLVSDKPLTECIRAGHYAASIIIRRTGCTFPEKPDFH

In general, IC50 refers to the concentration at which inhibition is half-maximal. The inhibition in vivo is the relative decrease from the control value, in per cent. For the compound `OC[C@@H]1O[C@@H](n2nc(-c3ccccc3)c3c(Nc4ccccc4)ncnc32)[C@H](O)[C@@H]1O` (single isomer, unassigned), at Adenosine kinase, the half-inhibitory concentration (IC50) turned out to be 2.8 nM. Besides, at 10 mg/kg the inhibition in vivo in the assay on Rattus norvegicus was 14.2%.

With `Nc1ncnc2c1c(Br)cn2[C@@H]1O[C@@H](CO)[C@@H](O)[C@H]1O` (single isomer, unassigned), the IC50 on Adenosine kinase amounted to 280 nM.

Consider `COC[C@@H]1O[C@@H](n2cc(I)c3c(N)ncnc32)[C@H](O)[C@@H]1O` (single isomer, unassigned), for which, on Adenosine kinase, the IC50 was 2000 nM.

Consider `Nc1ncnc2c1c(Br)nn2[C@@H]1O[C@@H](CO)[C@@H](O)[C@H]1O` (single isomer, unassigned), for which the concentration for half-maximal inhibition (IC50) at Adenosine kinase was 10000 nM.

In the case of `NC[C@@H]1O[C@@H](n2cc(I)c3c(N)ncnc32)[C@H](O)[C@@H]1O` (single isomer, unassigned), on Adenosine kinase, the IC50 was found to be 16 nM.

In the case of `Nc1ncnc2c1ncn2[C@@H]1O[C@@H](CO)[C@@H](O)[C@H]1O` (single isomer, unassigned), the 50% inhibitory concentration (IC50) at Adenosine kinase worked out at 1000 nM.

For `NC[C@@H]1O[C@@H](n2nc(Br)c3c(N)ncnc32)[C@H](O)[C@@H]1O` (single isomer, unassigned), the concentration for half-maximal inhibition (IC50) at Adenosine kinase was 170 nM.

Turning to `OC[C@@H]1O[C@@H](n2cc(-c3ccccc3)c3c(Nc4ccc(F)cc4)ncnc32)[C@H](O)[C@@H]1O` (single isomer, unassigned), on Adenosine kinase, the IC50 was found to be 1.5 nM. In addition, the inhibition in vivo at 10 mg/kg with Rattus norvegicus stood at 53.5%.

Turning to `NC[C@H]1O[C@@H](n2nc(Br)c3c(N)ncnc32)[C@H](O)[C@@H]1O` (single isomer, unassigned), the concentration for half-maximal inhibition (IC50) at Adenosine kinase is 4 nM.

On to `NC[C@@H]1O[C@@H](n2cnc3c(N)ncnc32)[C@H](O)[C@@H]1O` (single isomer, unassigned), for which the IC50 at Adenosine kinase was found to be 10000 nM.

With `NC[C@@H]1O[C@@H](n2nc(-c3ccccc3)c3c(Nc4ccccc4)ncnc32)[C@H](O)[C@@H]1O` (single isomer, unassigned), at Adenosine kinase, the IC50 is 42 nM.

In the assay on Rattus norvegicus, `Nc1ncnc2c1c(I)cn2[C@@H]1O[C@@H](CO)[C@@H](O)[C@H]1O` (single isomer, unassigned) registered an inhibition in vivo at 10 mg/kg of 43.8%.

As to `COC[C@@H]1O[C@@H](n2cc(-c3ccccc3)c3c(Nc4ccccc4)ncnc32)[C@H](O)[C@@H]1O` (single isomer, unassigned), at Adenosine kinase, the IC50 was determined as 15 nM. In the assay on Rattus norvegicus, this compound gave an inhibition in vivo at 10 mg/kg of 86%.

Regarding `C[C@H]1O[C@@H](n2cc(-c3ccccc3)c3c(Nc4ccc(F)cc4)ncnc32)[C@H](O)[C@@H]1O` (single isomer, unassigned), the IC50 on Adenosine kinase was found to be 5 nM.
